Bounds are passed on as bounds.

The first test concerns the target T1, hGPR120 (Homo sapiens, UniProt Q5NUL3).
T1 construct: expressed in transfected cells; host or cells: CHO-K1
T1 sequence (Q5NUL3 1-361): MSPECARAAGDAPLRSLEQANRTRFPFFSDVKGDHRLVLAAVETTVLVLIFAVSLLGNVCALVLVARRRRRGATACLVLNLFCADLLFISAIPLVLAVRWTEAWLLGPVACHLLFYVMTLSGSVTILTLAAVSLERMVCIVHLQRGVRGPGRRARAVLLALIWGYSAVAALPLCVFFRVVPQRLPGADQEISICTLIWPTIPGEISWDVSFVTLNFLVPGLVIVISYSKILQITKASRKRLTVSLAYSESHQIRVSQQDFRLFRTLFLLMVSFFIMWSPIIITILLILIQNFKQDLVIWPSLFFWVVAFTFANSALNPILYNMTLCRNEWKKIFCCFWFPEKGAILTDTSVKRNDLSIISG
In words: Measurement of activity of GPR120 agonist (cell-based assay), calcium fluorescence. To be noted: CHO-K1 cells expressing Ga16 and hGPR120; Calcium 5 dye fluorescence; activity class. Summed up: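 CHO-K1 cells co-expressing Gα16 and hGPR120, loaded with Calcium 5 dye for 1 h at 37° C, received serially diluted agonists (final 0.5% DMSO). Fluorescence (Ex 485/Em 525 nm) was expressed as relative percent over 0.1% DMSO-only wells; activity binned as A >20 μM, B 20–2 μM, C 2–0.2 μM, D <0.2 μM.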
Turning to `CC(C)Sc1cccc(COc2c(F)cc(CC(C)C(=O)O)cc2F)n1` (stereo not drawn) [Example 49, 3-[3,5-difluoro-4-(6-isopropylsulfanyl-pyridin-2-ylmethoxy)-phenyl]-2-methyl-propionic acid], the EC50 (commonly the concentration that produces a half-maximal response) is less than 200 nM. The same measure, in the same setting: the result for `CC(Cc1cc(F)c(OCc2cccnc2SCC2CC2)c(F)c1)C(=O)O` (stereo not drawn) [Example 50, 3-[4-(2-cyclopropylmethylsulfanyl-pyridin-3-ylmethoxy)-3,5-difluoro-phenyl]-2-methyl-propionic acid] reads less than 200 nM; that for `CCCSc1ncccc1COc1c(F)cc(CC(C)C(=O)O)cc1F` (stereo not drawn) [Example 51, 3-[3,5-difluoro-4-(2-propylsulfanyl-pyridin-3-ylmethoxy)-phenyl]-2-methyl-propionic acid], less than 200 nM. Still for that read-out and setting: the result for `CC(C)Sc1cccc(COc2ccc(CC(C)C(=O)O)cc2F)n1` (stereo not drawn) [Example 52, 3-[3-fluoro-4-(6-isopropylsulfanyl-pyridin-2-ylmethoxy)-phenyl]-2-methyl-propionic acid] reads less than 200 nM. In the case of `CCC(C)Sc1cccc(COc2ccc(CC(C)C(=O)O)cc2F)n1` (stereo not drawn) [Example 53, 3-[4-(6-sec-butylsulfanyl-pyridin-2-ylmethoxy)-3-fluoro-phenyl]-2-methyl-propionic acid], the EC50 was 200 to 2000 nM. The same measure, in the same setting: the result for `CC(Cc1ccc(OCc2cccc(SC3CCCC3)n2)c(F)c1)C(=O)O` (stereo not drawn) [Example 54, 3-[4-(6-cyclopentylsulfanyl-pyridin-2-ylmethoxy)-3-fluoro-phenyl]-2-methyl-propionic acid] reads less than 200 nM; that for `CC(Cc1ccc(OCc2cccc(SC3CCC3)n2)c(F)c1)C(=O)O` (stereo not drawn) [Example 55, 3-[4-(6-cyclobutylsulfanyl-pyridin-2-ylmethoxy)-3-fluoro-phenyl]-2-methyl-propionic acid], less than 200 nM.

For the compound `CC(Cc1cc(F)c(OCc2cccnc2SC2CCC2)c(F)c1)C(=O)O` (stereo not drawn) [Example 56, 3-[4-(2-cyclobutylsulfanyl-pyridin-3-ylmethoxy)-3,5-difluoro-phenyl]-2-methyl-propionic acid], the EC50 is less than 200 nM.

In the case of `COc1cc(CCC(=O)O)ccc1OCc1cccnc1SC1CCCC1` [Example 58, 3-[4-(2-cyclopentylsulfanyl-pyridin-3-ylmethoxy)-3-methoxy-phenyl]-propionic acid], the EC50 was less than 200 nM. `CC(C)Sc1ncccc1COc1ccc2c(c1)OCC2CC(=O)O` (stereo not drawn) [Example 59, [6-(2-isopropylsulfanyl-pyridin-3-ylmethoxy)-2,3-dihydro-benzofuran-3-yl]-acetic acid]: the EC50 is 200 to 2000 nM. The same measure, in the same setting: the result for `CC(C)Sc1ncccc1COc1ccc(CC(C)C(=O)O)cc1F` (stereo not drawn) [Example 60, 3-[3-fluoro-4-(2-isopropylsulfanyl-pyridin-3-ylmethoxy)-phenyl]-2-methyl-propionic acid] reads less than 200 nM; that for `CCCCSc1ncccc1COc1ccc(CC(C)C(=O)O)cc1F` (stereo not drawn) [Example 61, 3-[4-(2-butylsulfanyl-pyridin-3-ylmethoxy)-3-fluoro-phenyl]-2-methyl-propionic acid], less than 200 nM; that for `O=C(O)C1CC1c1cc(F)c(OCc2cccnc2SC2CCCC2)c(F)c1` (stereo not drawn) [Example 62, 2-[4-(2-cyclopentylsulfanyl-pyridin-3-ylmethoxy)-3,5-difluoro-phenyl]-cyclopropane carboxylic acid], less than 200 nM. Regarding `O=C(O)C1CC1c1cc(F)c(OCc2cccnc2SCC2CC2)c(F)c1` (stereo not drawn) [Example 63, 2-[4-(2-cyclopropylmethylsulfanyl-pyridin-3-ylmethoxy)-3,5-difluoro-phenyl]-cyclopropane carboxylic acid], the EC50 is less than 200 nM. Same read-out and setting: the figure for `CC(C)Sc1ncccc1COc1c(F)cc(C2CC2C(=O)O)cc1F` (stereo not drawn) [Example 65, 2-[3,5-difluoro-4-(2-isopropylsulfanyl-pyridin-3-ylmethoxy)-phenyl]-cyclopropane carboxylic acid] is less than 200 nM; for `CCCCSc1ncccc1COc1c(F)cc(C2CC2C(=O)O)cc1F` (stereo not drawn) [Example 66, 2-[4-(2-butylsulfanyl-pyridin-3-ylmethoxy)-3,5-difluoro-phenyl]-cyclopropane carboxylic acid] it is less than 200 nM. As to `CC(C)Sc1cccc(COc2ccc3c(c2)OCC3CC(=O)O)n1` (stereo not drawn) [Example 67, [6-(6-isopropylsulfanyl-pyridin-2-ylmethoxy)-2,3-dihydro-benzofuran-3-yl]-acetic acid], the EC50 was in the range of 200 to 2000 nM. Still for that read-out and setting: the figure for `O=C(O)CC1COc2cc(OCc3cccc(SC4CCCC4)n3)ccc21` (stereo not drawn) [Example 68, [6-(6-cyclopentylsulfanyl-pyridin-2-ylmethoxy)-2,3-dihydro-benzofuran-3-yl]-acetic acid] is 200 to 2000 nM. `CC(C)Sc1ncccc1COc1ccc(CC(C)(C)C(=O)O)cc1` [Example 69, 3-[4-(2-isopropylsulfanyl-pyridin-3-ylmethoxy)-phenyl]-2,2-dimethyl-propionic acid]: the EC50 was 200 to 2000 nM. Still for that read-out and setting: the figure for `Cc1ncc(COc2c(F)cc(CCC(=O)O)cc2F)c(SC(C)C)n1` [Example 71, 3-[3,5-difluoro-4-(4-isopropylsulfanyl-2-methyl-pyrimidin-5-ylmethoxy)-phenyl]-prop ionic acid] is 200 to 2000 nM; for `COc1cc(CCC(=O)O)ccc1OCc1cccc(SC(C)C)n1` [Example 72, 3-[4-(6-isopropylsulfanyl-pyridin-2-ylmethoxy)-3-methoxy-phenyl]-propionic acid] it is less than 200 nM. On the same count and under the same terms, the result for `COc1cc(CCC(=O)O)ccc1OCc1cccc(SC2CCCC2)n1` [Example 73, 3-[4-(6-cyclopentylsulfanyl-pyridin-2-ylmethoxy)-3-methoxy-phenyl]-propionic acid] reads 200 to 2000 nM. Still for that read-out and setting: the result for `O=C(O)CC1COc2cc(OCc3cccnc3SC3CCCC3)ccc21` (stereo not drawn) [Example 74, [6-(2-cyclopentylsulfanyl-pyridin-3-ylmethoxy)-2,3-dihydro-benzofuran-3-yl]-acetic acid] reads less than 200 nM; that for `O=C(O)C1CC1c1cc(F)c(OCc2cccc(SC3CCC3)n2)c(F)c1` (stereo not drawn) [Example 75, 2-[4-(6-cyclobutylsulfanyl-pyridin-2-ylmethoxy)-3,5-difluoro-phenyl]-cyclopropane carboxylic acid], less than 200 nM; that for `COc1ccc(COc2c(F)cc(CCC(=O)O)cc2F)c(SC2CCCC2)n1` [Example 76, 3-[4-(2-cyclopentylsulfanyl-6-methoxy-pyridin-3-ylmethoxy)-3,5-difluoro-phenyl]-propionic acid], 200 to 2000 nM. `CC(C)Sc1ncccc1COc1ccc(CCC(=O)O)cc1Cl` [Example 77, 3-[3-chloro-4-(2-isopropylsulfanyl-pyridin-3-ylmethoxy)-phenyl]-propionic acid]: the EC50 is less than 200 nM. Same read-out and setting: the result for `O=C(O)CCc1ccc(OCc2cccnc2SC2CCCC2)c(Cl)c1` [Example 78, 3-[3-chloro-4-(2-cyclopentylsulfanyl-pyridin-3-ylmethoxy)-phenyl]-propionic acid] reads less than 200 nM. Same read-out and setting: the figure for `Cc1c(CCC(=O)O)ccc(OCc2cccnc2SC2CCCC2)c1C` [Example 80, 3-[4-(2-cyclopentylsulfanyl-pyridin-3-ylmethoxy)-2,3-dimethyl-phenyl]-propionic acid] is less than 200 nM; for `O=C(O)C[C@@H]1COc2cc(OCc3cccnc3SC3CCCC3)ccc21` [Example 81, [(S)-6-(2-cyclopentylsulfanyl-pyridin-3-ylmethoxy)-2,3-dihydro-benzofuran-3-yl]-acetic acid] it is less than 200 nM; for `O=C(O)C[C@H]1COc2cc(OCc3cccnc3SC3CCCC3)ccc21` [Example 82, [(R)-6-(2-cyclopentylsulfanyl-pyridin-3-ylmethoxy)-2,3-dihydro-benzofuran-3-yl]-acetic acid] it is less than 200 nM.

For `O=C(O)C1CC1c1ccc(OCc2cccnc2SCC2CC2)c(F)c1` (stereo not drawn) [Example 84, 2-[4-(2-cyclopropylmethylsulfanyl-pyridin-3-ylmethoxy)-3-fluoro-phenyl]-cyclopropane carboxylic acid], the EC50 is less than 200 nM.

Still in this test, the particulars now being: CHO-K1 cells expressing Ga16 and hGPR120; Calcium 5 dye fluorescence; numeric value.
Turning to `COc1cc(CCC(=O)O)ccc1OCc1cccnc1SC(C)C` [Example 57, 3-[4-(2-isopropylsulfanyl-pyridin-3-ylmethoxy)-3-methoxy-phenyl]-propionic acid], the EC50 was 454 nM. On to `CC(C)Sc1cccc(COc2c(F)cc(C3CC3C(=O)O)cc2F)n1` (stereo not drawn) [Example 64, 2-[3,5-difluoro-4-(6-isopropylsulfanyl-pyridin-2-ylmethoxy)-phenyl]-cyclopropane carboxylic acid], for which the EC50 came out at 108 nM.

In the case of `CC(C)Sc1cccc(COc2ccc(CC(C)(C)C(=O)O)cc2)n1` [Example 70, 3-[4-(6-isopropylsulfanyl-pyridin-2-ylmethoxy)-phenyl]-2,2-dimethyl-propionic acid], the EC50 is 1880 nM. The same measure, in the same setting: the figure for `Cc1c(CCC(=O)O)ccc(OCc2cccnc2SC(C)C)c1C` [Example 79, 3-[4-(2-isopropylsulfanyl-pyridin-3-ylmethoxy)-2,3-dimethyl-phenyl]-propionic acid] is 33 nM; for `CC(C)Sc1ncccc1COc1ccc(C2CC2C(=O)O)cc1F` (stereo not drawn) [Example 83, 2-[3-fluoro-4-(2-isopropylsulfanyl-pyridin-3-ylmethoxy)-phenyl]-cyclopropane carboxylic acid] it is 110 nM.

For the origin of these results see US9447044B2, “Thioaryl derivatives as GPR120 agonists” (LG LIFE SCIENCES LTD., priority 2012, dated 2016).
